Experiments:
Parameters in all cases: species or system Cell membrane
[1] = biological target: T1, Melatonin receptor type 1A (Homo sapiens, UniProt P48039); test: Displacement of 2-[125I]iodomelatonin from human melatonin MT1 receptor stably expressing in human HEK293 cell membranes under dark condition by radioligand based competition binding assay
[2] = biological target: T1, Melatonin receptor type 1A; test: Displacement of 2-[125I]iodomelatonin from human melatonin MT1 receptor stably expressing in human HEK293 cell membranes in presence of light-activated compounds by radioligand based competition binding assay
[3] = biological target: T2, Melatonin receptor type 1B (Homo sapiens, UniProt P49286); test: Displacement of 2-[125I]iodomelatonin from human melatonin MT2 receptor stably expressing in human HEK293 cell membranes in presence of light-activated compounds by radioligand based competition binding assay
T2 sequence (P49286 whole entry): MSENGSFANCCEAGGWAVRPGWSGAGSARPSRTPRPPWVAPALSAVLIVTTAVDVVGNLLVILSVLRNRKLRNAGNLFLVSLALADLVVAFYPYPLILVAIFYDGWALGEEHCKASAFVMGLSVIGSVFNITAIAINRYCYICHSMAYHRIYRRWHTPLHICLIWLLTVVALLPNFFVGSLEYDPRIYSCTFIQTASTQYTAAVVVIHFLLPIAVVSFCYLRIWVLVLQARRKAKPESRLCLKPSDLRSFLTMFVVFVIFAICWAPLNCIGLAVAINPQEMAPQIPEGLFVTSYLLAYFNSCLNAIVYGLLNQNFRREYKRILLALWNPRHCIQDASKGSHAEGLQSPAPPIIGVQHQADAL

[4] = biological target: T2, Melatonin receptor type 1B; test: Displacement of 2-[125I]iodomelatonin from human melatonin MT2 receptor stably expressing in human HEK293 cell membranes under dark condition by radioligand based competition binding assay

T1 sequence (P48039 whole entry): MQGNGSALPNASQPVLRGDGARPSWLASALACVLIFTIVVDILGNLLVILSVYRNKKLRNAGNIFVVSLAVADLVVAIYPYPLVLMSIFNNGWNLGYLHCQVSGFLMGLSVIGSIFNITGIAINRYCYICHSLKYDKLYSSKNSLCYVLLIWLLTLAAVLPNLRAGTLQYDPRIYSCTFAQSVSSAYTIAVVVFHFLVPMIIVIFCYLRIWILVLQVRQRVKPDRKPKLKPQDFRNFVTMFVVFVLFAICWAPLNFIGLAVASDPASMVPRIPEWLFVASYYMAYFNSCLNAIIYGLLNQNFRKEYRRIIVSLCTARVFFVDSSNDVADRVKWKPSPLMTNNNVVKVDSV

COc1ccc2c(c1)c(CCNC(C)=O)cn2C(=O)OCc1cc(OC)c(OC)cc1[N+](=O)[O-]
Ki [1]: 51.3 nM | Ki [2]: 7.76 nM | Ki [3]: 6.92 nM | Ki [4]: 39.8 nM
